Laboratory results taken from patent US9873715B2, “Macrolides useful as anticancer agents” (PIERRE FABRE MEDICAMENT, priority 2013, dated 2018).

Legend:
Assay type in all cases: cell-based
[1] = test system: KB-V1: vinblastine-resistant human cervix carcinoma cell line; assay: cell survival (ATP-lite luminescence), KB-V1; details: KB-V1, 48 hours incubation, read-out: EC50 for various tumor cell lines: KB-V1
Procedure: (§1) Molecules (I-1), (I-2) and (I-3) were identified during a test of antiproliferative activity on a metastatic melanoma cell line, WM266-4.
(§2) The cells are seeded in 96-well plates in phenol red-free RPMI 1640 medium (Seromed) to which is added 10% fetal calf serum (100 μl/well, 1·10^4 to 3·10^4 cells/ml depending on the line studied). After incubation for 24 hours at 37° C. in an incubator (5% CO2), the medium is replaced with the same medium further containing the compound to be tested (various concentrations are used) and then the plates are incubated for an additional 48 hours. Cell survival is evaluated by measuring luminescence after ATP release in the medium using the cell lysis solutions, luciferase and luciferin, included in the ATP-lite-M™ kit as recommended by the manufacturer (Packard, Rungis, France). Each experimental condition was tested at least three times in sextuplicate.

[2] = test system: A549: human lung adenocarcinoma cell line; assay: cell survival (ATP-lite luminescence), A549; details: A549, 48 hours incubation, read-out: EC50 for various tumor cell lines: A549
Procedure: as §1, §2

[3] = test system: LoVo: human colon adenocarcinoma cell line; assay: cell survival (ATP-lite luminescence), LoVo; details: 48 hours incubation, read-out: EC50 for various tumor cell lines: LoVo
Procedure: as §1, §2

[4] = test system: KB: human oral carcinoma cell line; assay: cell survival (ATP-lite luminescence), KB; details: 48 hours incubation, read-out: EC50 for various tumor cell lines: KB
Procedure: as §1, §2

[5] = test system: BxPC3: human pancreatic adenocarcinoma cell line; assay: cell survival (ATP-lite luminescence), BxPC3; details: BXPC-3, BxPC3, 48 hours incubation, read-out: EC50 for various tumor cell lines: BxPC3
Procedure: as §1, §2

[6] = test system: SkoV3: human ovarian adenocarcinoma cell line; assay: cell survival (ATP-lite luminescence), SkoV3; details: SK-OV-3, SkoV3, 48 hours incubation, read-out: EC50 for various tumor cell lines: SkoV3
Procedure: as §1, §2

[7] = test system: Namalwa: Burkitt lymphoma cell line; assay: cell survival (ATP-lite luminescence), Namalwa; details: 48 hours incubation, read-out: EC50 for various tumor cell lines: Namalwa
Procedure: as §1, §2

Compound | EC50 [1] | EC50 [2] | EC50 [3] | EC50 [4] | EC50 [5] | EC50 [6] | EC50 [7]
COCC1OC(OC2CC(OC)CC3C2C(C)=CC2/C=C/C=C/C(C)C(/C=C/c4nc(C(C)CCCC#N)oc4C)OC(=O)CC/C=C(C)\C=C\C23C)C(OC)C(OC2OCC(OC)C(O)C2O)C1O (stereo not drawn) [Molecule (I-2)] | 0.49 nM | < 0.001 nM | 0.011 nM | 0.3 nM | 0.21 nM | 1300 nM | 0.36 nM
CNC(=O)OC1C(OC)COC(OC2C(O)C(COC)OC(OC3CC(OC)CC4C3C(C)=CC3/C=C/C=C/C(C)C(/C=C/c5nc(C(C)CCCC#N)oc5C)OC(=O)CC/C=C(C)\C=C\C34C)C2OC)C1O (stereo not drawn) [Molecule (I-3)] | 0.73 nM | < 0.001 nM | < 0.01 nM | 0.024 nM | 0.012 nM | 320 nM | 0.32 nM
COCC1OC(OC2CC(OC)CC3C2C(C)=CC2/C=C/C=C/C(C)C(/C=C/c4nc(C(C)CCCC#N)oc4C)OC(=O)CC/C=C(C)\C=C\C23C)C(OC)C(O)C1O (stereo not drawn) [Molecule (I-1)] | 0.7 nM | 0.011 nM | 0.04 nM | 0.31 nM | 0.22 nM | 36000 nM | 0.31 nM
